Experimental data as given in patent US8765779B2, “Tricyclic derivatives and their pharmaceutical use and compositions” (Cephalon, Inc., priority 2009, dated 2014).

target: T1, human 5-HT6 receptor (Homo sapiens, UniProt P50406); experiment: Human 5-HT6 Receptor Binding Assay ([3H]LSD displacement, scintillation beads); conditions: membranes of CHO-K1 cells with recombinant human 5-HT6, 4 nM [3H]LSD; Table 1, class symbols; read-out: h5-HT6 (Ki)
T1 construct: host or cells: CHO-K1 cells, stably transfected; membranes prepared in house
T1 sequence (P50406 whole entry): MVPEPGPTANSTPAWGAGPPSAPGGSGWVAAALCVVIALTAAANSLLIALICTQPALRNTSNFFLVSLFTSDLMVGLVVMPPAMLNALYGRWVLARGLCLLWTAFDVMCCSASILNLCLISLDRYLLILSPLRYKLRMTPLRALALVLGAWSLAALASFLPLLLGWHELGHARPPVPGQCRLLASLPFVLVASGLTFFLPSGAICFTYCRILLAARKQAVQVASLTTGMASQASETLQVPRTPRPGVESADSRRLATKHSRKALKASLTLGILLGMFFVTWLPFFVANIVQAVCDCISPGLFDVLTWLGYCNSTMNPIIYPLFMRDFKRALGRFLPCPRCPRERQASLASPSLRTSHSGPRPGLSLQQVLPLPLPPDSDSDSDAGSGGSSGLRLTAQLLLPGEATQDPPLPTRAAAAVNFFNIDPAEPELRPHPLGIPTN

| Ki [nM] | Compound |
| --- | --- |
| < 500 | CC1OCCC12NCCc1c2oc2cc(S(=O)(=O)c3cccc(F)c3)ccc12 (single isomer, unassigned) [Example 59, 7-[(3-Fluorophenyl)sulfonyl]-2′-methyl-3,4,4′,5′-tetrahydro-2H-spiro[1-benzofuro[2,3-c]pyridine-1,3′-furan]] |
| < 500 | CC(C)Oc1ncccc1S(=O)(=O)c1ccc2c3c(oc2c1)CNCC3 [Example 439] |
| < 500 | CC(C)Oc1cccc(S(=O)(=O)c2ccc3oc4c(c3c2)CCNC4)c1 [Example 267] |
| < 500 | O=S(=O)(Oc1ccc2c(c1)OC1CNCCC21)c1ccc(Cl)c(Cl)c1 (stereo not drawn) [Example 676] |
| < 500 | COCC1(COC)NCCc2c1oc1cc(S(=O)(=O)c3cccc(F)c3)ccc21 [Example 39, 7-[(3-fluorophenyl)sulfonyl]-1,1-bis(methoxymethyl)-1,2,3,4-tetrahydro[1]benzofuro[2,3-c]pyridine] |
| < 500 | O=S(=O)(c1cccc(F)c1)c1ccc2c3c(oc2c1)C1(CCOC1)NCC3 (single isomer, unassigned) [Example 52, 7-[(3-fluorophenyl)sulfonyl]-3,4,4′,5′-tetrahydro-2H-spiro[1-benzofuro[2,3-c]pyridine-1,3′-furan]] |
| > 1000 | COc1ccc(S(=O)(=O)c2ccc3c(c2)OC2CNCCC32)cc1 (stereo not drawn) [Example 323] |
| < 500 | O=[N+]([O-])c1ccc(S(=O)(=O)c2ccc3c4c(oc3c2)CNCC4)cc1 [Example 205] |
| < 500 | COc1cc(OC(C)C)cc(S(=O)(=O)c2ccc3c(c2)OC2CNCCC32)c1 (stereo not drawn) [Example 78] |
| < 500 | O=S(=O)(c1ccc2c3c(oc2c1)[C@@]1(CCOC1)NCC3)c1cc(F)ccc1F (single isomer, unassigned) [Example 109] |
| < 500 | O=S(=O)(c1ccccc1)c1ccc2c(c1)OC1CNCCC21 (stereo not drawn) [Example 326, 7-(phenylsulfonyl)-1,2,3,4,4a,9a-hexahydro[1]benzofuro[2,3-c]pyridine] |
| < 500 | O=S(=O)(c1cccc(OCC2CCCCO2)c1)c1ccc2c(c1)OC1CNCCC21 (stereo not drawn) [Example 553] |
| < 500 | O=S(=O)(c1ccccc1)c1ccc2c3c(oc2c1)CN(CCO)CC3 [Example 592, 2-[7-(Phenylsulfonyl)-3,4-dihydro[1]benzofuro[2,3-c]pyridin-2(1H)-yl]ethanol] |
| < 500 | COc1cc(F)cc(S(=O)(=O)c2ccc3c(c2)OC2CNCCC32)c1 (stereo not drawn) [Example 407] |
| < 500 | O=S(=O)(c1ccc2oc3c(c2c1)CCNC3)c1cccc2ccccc12 [Example 249] |
| < 500 | O=S(=O)(Oc1ccc2c(c1)OC1CNCCC21)c1ccc(Cl)cc1 (stereo not drawn) [Example 635, 1,2,3,4,4a,9a-Hexahydro[1]benzofuro[2,3-c]pyridin-7-yl 4-chlorobenzenesulfonate] |
| < 500 | Cc1ccc(S(=O)(=O)Oc2ccc3c(c2)C2CCNCC2O3)cc1 (stereo not drawn) [Example 700] |
| < 500 | O=S(=O)(Oc1ccc2c(c1)OC1CNCCC21)c1cc2ccccc2s1 (stereo not drawn) [Example 664] |
| < 500 | O=S(=O)(c1cccc(Cl)c1)c1ccc2oc3c(c2c1)CCNC3 [Example 243] |
| < 500 | CC1(C)NCCc2c1oc1cc(S(=O)(=O)c3cc(Cl)c[n+]([O-])c3N)ccc21 [Example 371] |
| < 500 | O=S(=O)(c1cc(F)cc(Cl)c1)c1ccc2c(c1)OC1CNCCC21 (stereo not drawn) [Example 147] |
| < 500 | COc1cncc(S(=O)(=O)c2ccc3c4c(oc3c2)C2(CCOC2)NCC4(C)C)c1 (stereo not drawn) [Example 454] |

| Compound | Ki [nM] |
| --- | --- |
| CC12CCNCC1Oc1ccc(OS(=O)(=O)c3ccccc3Cl)cc12 (stereo not drawn) [Example 763] | > 1000 |
| CC12CCNCC1Oc1ccc(OS(=O)(=O)c3cccc(Cl)c3)cc12 (stereo not drawn) [Example 762] | > 1000 |
| CC12CCNCC1Oc1ccc(OS(=O)(=O)c3cc4ccccc4o3)cc12 (stereo not drawn) [Example 764] | 500 to 1000 |
| CC12CCNCC1Oc1ccc(OS(=O)(=O)c3ccc(Oc4ccccc4)nc3)cc12 (stereo not drawn) [Example 782] | > 1000 |
| COc1ccc(S(=O)(=O)Oc2ccc3c(c2)C2(C)CCNCC2O3)cc1 (stereo not drawn) [Example 760] | > 1000 |
